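How tested: cells in 96-well plates exposed to compound for 48 hours at five concentrations. Here, GI50 denotes the concentration required for 50% inhibition of growth.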 Activity calls are given as the source filed them. Cut-off read from the data, not from the text of the source: active = GI50 up to about 1.1 µM and inactive = higher.
How the values were obtained:
Test in all cases: NCI-60 cell line screen, 48 h
U-251 = tested on: U-251
IGROV-1 = tested on: IGROV-1
HCT-116 = tested on: HCT-116
SF-539 = tested on: SF-539
RXF 393 = tested on: RXF 393
SNB-75 = tested on: SNB-75
K562 = tested on: K562
CCRF-CEM = tested on: CCRF-CEM
A498 = tested on: A498
MOLT-4 = tested on: MOLT-4
HOP-62 = tested on: HOP-62
KM12 = tested on: KM12
Malme-3M = tested on: Malme-3M
HCT-15 = tested on: HCT-15
TK-10 = tested on: TK-10
SK-OV-3 = tested on: SK-OV-3
SN12C = tested on: SN12C
ACHN = tested on: ACHN
NCI-H226 = tested on: NCI-H226
SK-MEL-5 = tested on: SK-MEL-5

SMILES	GI50 (U-251)	GI50 (IGROV-1)	GI50 (HCT-116)	GI50 (SF-539)	GI50 (RXF 393)	GI50 (SNB-75)	GI50 (K562)	GI50 (CCRF-CEM)	GI50 (A498)	GI50 (MOLT-4)	GI50 (HOP-62)	GI50 (KM12)	GI50 (Malme-3M)	GI50 (HCT-15)	GI50 (TK-10)	GI50 (SK-OV-3)	GI50 (SN12C)	GI50 (ACHN)	GI50 (NCI-H226)	GI50 (SK-MEL-5)
N/C(S)=N/N=C/c1cc(CN2CCOCC2)c(N)cn1	56.8 µM (inactive)	50.5 µM (inactive)	61.8 µM (inactive)	27.5 µM (inactive)	> 100 µM (inactive)	25 µM (inactive)	89.5 µM (inactive)	40.1 µM (inactive)	37 µM (inactive)	48.1 µM (inactive)	30.3 µM (inactive)	23.6 µM (inactive)	31.3 µM (inactive)	15 µM	43.4 µM (inactive)	53 µM (inactive)	62.4 µM (inactive)	14.1 µM (inactive)	12.7 µM (inactive)	35.2 µM (inactive)
O=C(O)CCc1nc(-c2ccccc2)c(-c2ccccc2)o1 [OXAPROZIN]	> 100 µM (inactive)	> 100 µM (inactive)	> 100 µM (inactive)	> 100 µM (inactive)	> 100 µM (inactive)	> 100 µM (inactive)	> 100 µM (inactive)	> 100 µM (inactive)	> 100 µM (inactive)	84.1 µM (inactive)	> 100 µM (inactive)	> 100 µM (inactive)	> 100 µM (inactive)	> 100 µM	> 100 µM (inactive)	> 100 µM (inactive)	> 100 µM (inactive)	> 100 µM (inactive)	> 100 µM (inactive)	> 100 µM (inactive)
